{"source": "paper PMC12530843", "about": "“Identification of a New Interesting BAG3 Modulator Able to Disrupt Cancer‐Related Pathways” (Chemmedchem, 2025)", "key": {"BAG3-BD": {"target": "T1, BAG3-BD (Homo sapiens, UniProt O95817)", "T1 construct": "the BAG3 domain (BAG3‐BD) was sourced from ARETA International S.r.l; (Gerenzano, Italy); purchased ARETA International S.r.l", "T1 sequence (O95817 421-498 limits assumed)": "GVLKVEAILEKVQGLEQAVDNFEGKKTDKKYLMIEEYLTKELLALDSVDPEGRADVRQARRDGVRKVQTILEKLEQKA", "assay": "SPR binding on BAG3 BAG domain", "conditions": "Biacore T200, 25 °C, 1:1 model; for Kd: read-out: BAG3–BD KD ± SD", "experimental": "(§1) Recombinant human BAG3 protein (Bcl2‐associated athanogene 3) was obtained from Novus Biologicals (Littleton, Colorado), while the BAG3 domain (BAG3‐BD) was sourced from ARETA International S.r.l. (Gerenzano, Italy). We used (Z)‐ethyl 2‐(5‐(3,4‐dihydroxybenzylidene)‐2,4‐dioxothiazolidin‐3‐yl)acetate (LK4), a BAG3 inhibitor previously identified by our group.^[ [13] ^] SPR spectroscopy was performed using a Biacore T200 optical biosensor with CM5 sensor chips (Cytiva, Marlborough, USA) to assess the affinity of synthesized molecules for BAG3 and BAG‐BD. BAG3 and BAG‐BD were immobilized on CM5 sensor chip using standard amine‐coupling protocol.^[ [15] ^, [42] ^, [43] ^] BAG3 protein (0.067 μg μL^−1 in 10 mM CH3COONa, pH 4.5) was immobilized at a flow rate of 10 μL min^−1, achieving a surface density of 14 kRU, while BAG3‐BD (0.38 μg μL^−1 in 10 mM CH3COONa, pH 4.5) reached a density of 4 kRU. For the experiments, BAG3 and BAG‐BD surfaces, as well as an unmodified reference surface, were prepared for simultaneous analysis. Compounds 1–10 and LK4 were initially dissolved to 10 mM in 100% DMSO, then diluted 1:20 (v/v) in PBS‐P buffer (0.2 M phosphate buffer, 27 mM KCl, 1.37 M NaCl, 0.5% surfactant P20) resulting in a final DMSO concentration of 5.0%. The compounds were injected in a concentration series (1:2 dilution, 10 different concentrations) ranging from 0 to 100 μM, using 96‐well plates. SPR experiments were conducted at 25 °C with a flow rate of 20 μL min^−1, featuring a 90 s association phase followed by a 400 s dissociation phase. Changes in mass, recorded as resonance units (RU), were used to quantify binding responses, while K D values were determined using Biaevaluation software by globally fitting the double‐referenced association and dissociation data to a 1:1 interaction model. (See Figure S43–S56, Supporting Information)."}, "HeLa cells [1]": {"test_system": "HeLa cells", "assay": "MTT cell viability, HeLa", "type": "cell-based", "experimental": "(§2) Human cell lines of lung adenocarcinoma (A549), cervical carcinoma (HeLa), malignant melanoma (A375), breast adenocarcinoma (MCF7), and immortalized human keratinocytes (HaCaT) were cultured in high‐glucose DMEM supplemented with FBS (10%, v/v), glutamine (2 mM L^−1), penicillin (100 U mL^−1), and streptomycin ([…]). Cells were maintained at 37 °C in a humidified 5% CO2 atmosphere and subcultured every 2 days to maintain logarithmic growth. The human cell lines were kindly donated by Prof. Ornella Moltedo, Department of Pharmacy, University of Salerno.^[ [15] ^, [44] ^]\nCell viability was evaluated using a colorimetric assay to measure mitochondrial metabolic activity through the reduction of 3‐[4,5‐dimethylthiazol‐2,5‐diphenyl‐2H‐tetrazolium bromide (MTT) to purple formazan. Stock solutions of SP18 and compounds 1, 2, 5–8 (50 mM in DMSO) were stored at −20 °C in the dark and diluted immediately before addition to the sterile culture medium. The final concentration of DMSO for the tested compounds was 0.1%, which was consistent with the percentage of DMSO used in the negative control. A549 (3.5 × 10³ cells well^−1), HeLa (3.5 × 10³ cells well^−1), A375 (5.0 × 10³ cells well^−1), and MCF7 (3.5 × 10³ cells well^−1) cells were seeded in triplicate in 96‐well plates. After 24 h to allow for attachment, cells were treated with various concentrations of the compounds (10 and 50 µM), using 0.1% (v/v) DMSO as a negative control and 10% (v/v) DMSO as a positive control following treatment, 20 μL of MTT solution (5 mg mL^−1 in PBS) were added to each well, and cells were incubated for 3 h at 37 °C. Formazan crystals were then dissolved in 100 μL of a buffer containing 50% (v/v) N,N‐dimethylformamide and 20% SDS (pH 4.5), and absorbance was measured at 570 nm using a Multiskan GO Microplate Spectrophotometer (Thermo Fisher Scientific, USA).^[ [44] ^] […] IC50 values, defined as the concentration causing 50% inhibition of cell survival, were calculated and compared to DMSO‐treated controls using GraphPad Prism 8.0 software via nonlinear regression. IC50 values for SP18 and compound 2 were also determined in HaCaT cells (5.0 × 10³ cells well^−1) after 48 or 72 h of treatment.^[ [15] ^]"}, "BAG3 full length": {"target": "T2, BAG3 full length (Homo sapiens, UniProt O95817)", "T2 construct": "purchased Novus Biologicals (Littleton, Colorado)", "T2 sequence (O95817 whole entry)": "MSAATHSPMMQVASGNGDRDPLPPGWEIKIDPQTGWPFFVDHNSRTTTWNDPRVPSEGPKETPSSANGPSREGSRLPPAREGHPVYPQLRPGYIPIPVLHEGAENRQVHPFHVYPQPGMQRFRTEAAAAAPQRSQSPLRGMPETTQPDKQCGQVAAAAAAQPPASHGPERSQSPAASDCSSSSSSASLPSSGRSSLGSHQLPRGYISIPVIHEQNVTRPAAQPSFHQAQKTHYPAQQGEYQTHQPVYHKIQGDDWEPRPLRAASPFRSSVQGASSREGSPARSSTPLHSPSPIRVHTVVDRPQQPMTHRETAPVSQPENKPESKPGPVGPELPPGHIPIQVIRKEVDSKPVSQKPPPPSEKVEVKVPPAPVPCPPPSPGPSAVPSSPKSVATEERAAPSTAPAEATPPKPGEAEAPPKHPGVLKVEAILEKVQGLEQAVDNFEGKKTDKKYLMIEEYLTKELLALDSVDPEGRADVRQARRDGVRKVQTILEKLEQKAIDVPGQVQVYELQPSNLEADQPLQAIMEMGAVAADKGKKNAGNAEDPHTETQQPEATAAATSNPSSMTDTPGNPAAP", "assay": "SPR binding on full-length BAG3", "conditions": "Biacore T200, 25 °C, 1:1 model; for Kd: read-out: BAG3 FULL KD ± SD", "experimental": "as §1"}, "HaCaT cells": {"test_system": "HaCaT cells", "assay": "MTT cell viability, HaCaT healthy keratinocytes", "type": "cell-based, human", "experimental": "as §2\nCell viability was evaluated using a colorimetric assay to measure mitochondrial metabolic activity through the reduction of 3‐[4,5‐dimethylthiazol‐2,5‐diphenyl‐2H‐tetrazolium bromide (MTT) to purple formazan. Stock solutions of SP18 and compounds 1, 2, 5–8 (50 mM in DMSO) were stored at −20 °C in the dark and diluted immediately before addition to the sterile culture medium. The final concentration of DMSO for the tested compounds was 0.1%, which was consistent with the percentage of DMSO used in the negative control. […] Formazan crystals were then dissolved in 100 μL of a buffer containing 50% (v/v) N,N‐dimethylformamide and 20% SDS (pH 4.5), and absorbance was measured at 570 nm using a Multiskan GO Microplate Spectrophotometer (Thermo Fisher Scientific, USA).^[ [44] ^] […]"}, "HeLa cells [2]": {"test_system": "HeLa cells", "assay": "Cell cycle / hypodiploid nuclei by PI flow cytometry", "type": "cell-based, human", "experimental": "Hypodiploid nuclei were analyzed by propidium iodide (PI) staining using flow cytometry. HeLa cells (1 × 10^5 cells well^−1) were cultured in 12‐well plates and allowed to adhere for 24 h. The medium was then refreshed, and cells were treated with SP18 (0.75, 1.5, 3, 6, and 12 µM) for 48 h or compound 2 (10, 30, and 50 µM) for 72 h, with 0.1% (v/v) DMSO as a control. The final concentration of DMSO for the tested compounds was 0.1%, which is consistent with the percentage of DMSO used in the negative control. Following treatment, the culture medium was replaced, and cells were washed twice with PBS before being resuspended in 500 μL of a solution containing 50 mg L^−1 PI, 0.1% (w/v) sodium citrate, and 0.1% Triton X‐100. To include both dead and live cells in the analysis, the culture medium and PBS washes were centrifuged, and the resulting cell pellets were combined with the main cell suspension. Cells were then incubated at 4 °C for 30 min in the dark, and nuclei were analyzed using a Becton Dickinson FACScan flow cytometer (Franklin Lakes, USA) with Cell Quest software. DNA content was recorded, and cellular debris was excluded by adjusting the forward scatter threshold. The percentage of cells in the hypodiploid region (sub‐G0) and those in the G1, S, and G2 phases were calculated.^[ [45] ^] (See Figure S57–S58, Supporting Information)."}}, "note": "Read-outs that look alike come from different tables or passages of the source.", "data": [{"smiles": "O=C(OCc1cn(Cc2ccc3c(c2)C(=O)c2ccccc2C3=O)nn1)c1cccc([N+](=O)[O-])c1", "note": "[Compound 2, (1‐((9,10‐Dioxo‐9,10‐dihydroanthracen‐2‐yl)methyl)‐1H‐1,2,3‐triazol‐4‐yl)methyl 3‐nitrobenzoate]", "values": [{"measurement": "BAG3–BD KD ± SD", "setting": "BAG3-BD", "value": "low micromolar range"}, {"measurement": "Kd", "setting": "BAG3-BD", "value": "0.38 ± 0.05", "unit": "µM"}, {"measurement": "mortality at 50 µM", "setting": "HeLa cells [1]; Homo sapiens, HeLa, 50 µM, 72 h", "value": "~70", "unit": "%"}, {"measurement": "IC50", "setting": "HeLa cells [1]; Homo sapiens, HeLa, 72 h of exposure, read-out: IC50 on HeLa cells", "value": "40.8 ± 5.5", "unit": "µM"}, {"measurement": "BAG3 FULL KD ± SD", "setting": "BAG3 full length", "value": "low micromolar range"}, {"measurement": "Kd", "setting": "BAG3 full length", "value": "1.04 ± 0.03", "unit": "µM"}, {"measurement": "cytotoxicity on healthy HaCaT cells", "setting": "HaCaT cells; 72 h, up to 70 µM (highest concentration tested)", "value": "no significant cytotoxicity"}, {"measurement": "effect on cell cycle / hypodiploid nuclei", "setting": "HeLa cells [2]; 72 h, 10, 30 and 50 µM", "value": "induces hypodiploid nuclei formation in a concentration‐dependent manner"}]}, {"smiles": "O=C(OCc1cn(Cc2ccc(C(=O)c3ccccc3)cc2)nn1)c1cccc([N+](=O)[O-])c1", "note": "[SP18]", "values": [{"measurement": "Kd", "setting": "BAG3-BD", "value": "43.5 ± 5.09", "unit": "µM"}, {"measurement": "cytotoxicity against HeLa cells (screen)", "setting": "HeLa cells [1]; 10 and 50 µM, 72 h", "value": "significant cytotoxicity"}, {"measurement": "IC50", "setting": "HeLa cells [1]; Homo sapiens, HeLa, 48 h of treatment, read-out: IC50 against HeLa", "value": "14.8 ± 1.34", "unit": "µM"}, {"measurement": "Kd", "setting": "BAG3 full length", "value": "36 ± 0.85", "unit": "µM"}, {"measurement": "IC50", "setting": "HaCaT cells; Homo sapiens, HaCaT, 48 h, seven concentrations, MTT", "value": "22.1 ± 0.67", "unit": "µM"}, {"measurement": "effect on cell cycle / hypodiploid nuclei", "setting": "HeLa cells [2]; 48 h, 0.75 to 12 µM", "value": "induces hypodiploid nuclei formation in a concentration‐dependent manner and causes an S‐phase block"}]}]}
